From patent publication US9807999B2, “Formulations” (priority 2010, dated 2017)

Columns and labels:
[1] = Solubility of active ingredients in solvents of the invention (equilibrated 4 weeks, supernatant analysed by gas chromatography)
Description: The resultant sample was mixed with a Whirlimixer™ and was then stored at 25° C. […] This procedure was repeated until the sample had equilibrated for 4 weeks following the final addition of either active ingredient or solvent.

[2] = Solubility of pesticides in propylene glycol benzoate compared with commonly used solvents; conditions: comparison in words; 20° C.
[3] = solvent propylene glycol benzoate (compound 1), 25° C., equilibrated 4 weeks
[4] = solvent butylene glycol benzoate (compound 2), 25° C., equilibrated 4 weeks

| Compound | Solubility in butylene glycol benzoate at 25° C. ([1]; 4 weeks) | Solubility in propylene glycol benzoate at 25° C. ([1]; 4 weeks) | Solubility in propylene glycol benzoate at 25° C. [1, 3] | Solubility in propylene glycol benzoate relative to a series of commonly used solvents [2] | Solubility in butylene glycol benzoate at 25° C. [1, 4] |
| --- | --- | --- | --- | --- | --- |
| CC(C1CC1)C(O)(Cn1cncn1)c1ccc(Cl)cc1 (centres unmarked) [Cyproconazole] | 6.9 % w/w | 4.5 % w/w | – | – | – |
| N#Cc1c(Cl)c(Cl)c(Cl)c(C#N)c1Cl [Chlorothalonil] | – | – | 1.32 % w/w | lower | – |
| CC(C)C1C2CCC1c1c(NC(=O)c3cn(C)nc3C(F)F)cccc12 (centres unmarked) [Isopyrazam] | – | – | 12.7 % w/w | higher | 12.4 % w/w |
| CO/C=C(/C(=O)OC)c1ccccc1Oc1cc(Oc2ccccc2C#N)ncn1 [Azoxystrobin] | – | – | 5.5 % w/w | higher | 8.1 % w/w |
| COCCOCc1nc(C(F)(F)F)ccc1C(=O)C1=C(O)C2CCC(C2)C1=O (centres unmarked) [4-Hydroxy-3-[2-(2-methoxyethoxymethyl)-6-trifluoromethylpyridine-3-carbonyl]-bicyclo[3.2.1]oct-3-en-2-one] | – | – | 27.4 % w/w | – | – |
